{"source": "patent US7348163B2", "about": "“Human GABAB receptor 1 promoters” (AstraZeneca AB, priority 1999, dated 2008)", "tested_on": "human GABAB receptor 1 promoter P1b", "test": "Luciferase reporter assay of GABAB receptor 1 promoter P1b activity (pAM440) in transfected ND7/23 cells", "type": "cell-based", "conditions": "Forskolin 10 μM + 1-methyl-3-isobutylxanthine 0.125 mM, 24 h", "method": "Reporter constructs containing R1a and R1b promoter fragments were generated by PCR using plasmid pAM 364, containing genomic sequence covering the promoter regions, as template. PCR reaction was performed by standard procedure (Perkin Elmer). Briefly, an initial denaturation at 95° C. for 4 min was followed by 35 cycles of denaturation at 95° C. for 1 min, annealing at 60° C. for 1 min, elongation at 72° C. for 1 min and finally a 7 min elongation at 72° C. […]\nTo determine putative promoter activity, the reporter gene constructs were introduced into mammalian cells by transfection. […] Luciferase activity in cell extracts was measured in a Luciferase Assay System (Promega), where 40 μl of cell extracts was added to a 96-well plate (Maxisorp, Nunc) and mixed with 50 μl of luciferase substrate. Luciferase activity was then measured in a LUMIstar (BMG Lab technologies). As internal control for transfection efficiency, β-Galactosidase (β-Gal.) activity was measured in 96-well plate (Maxisorp, Nunc) using a β-Galactosidase Enzyme Assay (Promega) according to suppliers protocol.\nND7/23 cells (4×10^5) were transfected with promoter-luciferase constructs as described above. […] After incubation, cells were harvested and luciferase activity measured. Luciferase activity, minus background, is shown as arbitrary light units measured in 40 μl of cell extracts. […]"}
{"smiles": "CC(C)Cn1c(=O)n(C)c(=O)c2[nH]cnc21", "note": "[IBMX, 1-methyl-3-isobutylxanthine]", "values": [{"measurement": "further enhancement of forskolin induced expression", "value": "does not show a significant difference"}]}
